According to US20140162980A1, “NOVEL MICROBIOCIDAL DIOXIME ETHER DERIVATIVES” (SYNGENTA CROP PROTECTION LLC, priority 2010, published 2014):

How the values were obtained:
[1] = tested on: Phytophthora infestans; assay: whole plant or invertebrate; type: in vivo; conditions: in Solanum lycopersicum, foliar, read-out: control of Phytophthora infestans (percent disease control compared to untreated)
[2] = tested on: Plasmopara viticola; assay: whole plant or invertebrate; type: in vivo; conditions: foliar, read-out: control of Plasmopara viticola (percent disease control compared to untreated)
[3] = tested on: Blumeria graminis f. sp. tritici (Erysiphe graminis f. sp. tritici); assay: Blumeria graminis f. sp. tritici / wheat / leaf disc preventative (powdery mildew on wheat); type: in vivo; conditions: foliar, wheat leaf segments cv. Kanzler, inoculated 1 day after application, assessed 6-8 days after application, read-out: control of Blumeria graminis (percent disease control compared to untreated)
Protocol: Blumeria Graminis f. Sp. Tritici (Erysiphe Graminis f. Sp. Tritici)/Wheat/Leaf Disc Preventative (Powdery Mildew on Wheat):
Wheat leaf segments cv. Kanzler were placed on agar in a 24-well plate and sprayed with the formulated test compound diluted in water at an application rate of 200 ppm. The leaf disks were inoculated by shaking powdery mildew infected plants above the test plates 1 day after application. The inoculated leaf disks were incubated at 20° C. and 60% relative humidity under a light regime of 24 h darkness followed by 12 h/12 h (dark/light) in a climate chamber and the activity of a compound was assessed as percent disease control compared to untreated when an appropriate level of disease damage appears on untreated check leaf segments (6-8 days after application). The following compounds gave at least 80% control of Blumeria graminis: […]

[4] = tested on: Puccinia recondita f. sp. tritici; assay: Puccinia recondita f. sp. tritici / wheat / leaf disc preventative (brown rust); type: in vivo; conditions: foliar, wheat leaf segments cv Kanzler, inoculated 1 day after application, assessed 7-9 days after application, read-out: control of Puccinia recondita f. sp. tritici, preventative (percent disease control compared to untreated)
Protocol: Puccinia Recondita f. Sp. Tritici/Wheat/Leaf Disc Preventative (Brown Rust): Wheat leaf segments cultivated variety (cv) Kanzler were placed on agar in 24-well plates and sprayed with formulated test compound diluted in water at an application rate of 200 ppm. The leaf disks were inoculated with a spore suspension of the fungus 1 day after application. The inoculated leaf segments were incubated at 19° C. and 75% relative humidity under a light regime of 12/12 h (light/dark) in a climate cabinet and the activity of a compound was assessed as percent disease control compared to untreated when an appropriate level of disease damage appears in untreated check leaf segments (7-9 days after application).

[5] = tested on: Puccinia recondita f. sp. tritici; assay: Puccinia recondita f. sp. tritici / wheat / leaf disc curative (brown rust); type: in vivo; conditions: foliar, 200 ppm applied 1 day after inoculation, wheat leaf segments cv Kanzler, assessed 6-8 days after application, read-out: control of Puccinia recondita f. sp. tritici, curative (percent disease control compared to untreated)
Protocol: Puccinia Recondita f. Sp. Tritici/Wheat/Leaf Disc Curative (Brown Rust): Wheat leaf segments cv Kanzler were placed on agar in 24-well plates. The leaf segments were inoculated with a spore suspension of the fungus. The plates were stored in darkness at 19° C. and 75% relative humidity. The formulated test compound diluted in water was applied at an application rate of 200 ppm 1 day after inoculation.

[6] = tested on: Magnaporthe grisea (Pyricularia oryzae); assay: whole plant or invertebrate; type: in vivo; conditions: foliar, read-out: control of Magnaporthe grisea (percent disease control compared to untreated)
[7] = tested on: Phaeosphaeria nodorum (Septoria nodorum); assay: Phaeosphaeria nodorum (Septoria nodorum) / wheat / leaf disc preventative (glume blotch); type: in vivo; conditions: Parastagonospora nodorum, foliar, wheat leaf segments cv Kanzler, inoculated 2 days after application, assessed 5-7 days after application, read-out: control of Phaeosphaeria nodorum (percent disease control compared to untreated)
Protocol: Phaeosphaeria Nodorum (Septoria nodorum)/Wheat/Leaf Disc Preventative (Glume Blotch): Wheat leaf segments cv Kanzler were placed on agar in a 24-well plate and sprayed with formulated test compound diluted in water at an application rate of 200 ppm. The leaf disks are inoculated with a spore suspension of the fungus 2 days after application. The inoculated test leaf disks are incubated at 20° C. and 75% relative humidity under a light regime of 12/12 h (light/dark) in a climate cabinet and the activity of a compound is assessed as percent disease control compared to untreated when an appropriate level of disease damage appears in untreated check leaf disks (5-7 days after application).

[8] = tested on: Pyrenophora teres; assay: Pyrenophora teres / barley / leaf disc preventative (net blotch); type: in vivo; conditions: foliar, barley leaf segments cv Hasso, inoculated two days after application, assessed 5-7 days after application, read-out: control of Pyrenophora teres (disease control compared to untreated)
Protocol: Pyrenophora Teres/Barley/Leaf Disc Preventative (Net Blotch): Barley leaf segments cv Hasso are placed on agar in a 24-well plate and sprayed with formulated test compound diluted in water at an application rate of 200 ppm. The leaf segments are inoculated with a spore suspension of the fungus two days after application of the test solution. The inoculated leaf segments are incubated at 20° C. and 65% relative humidity under a light regime of 12/12 h (light/dark) in a climate cabinet and the activity of a compound is assessed as disease control compared to untreated when an appropriate level of disease damage appears in untreated check leaf segments (5-7 days after application).

[9] = tested on: Alternaria solani; assay: Alternaria solani / tomato / leaf disc (early blight); type: in vivo; conditions: foliar, tomato leaf disks cv. Baby, inoculated 2 days after application, assessed 5-7 days after application, read-out: control of Alternaria solani (percent disease control compared to untreated)
Protocol: Alternaria Solani/Tomato/Leaf Disc (Early Blight): Tomato leaf disks cv. Baby are placed on agar in multiwell plates (24-well format) and sprayed with the formulated test compound diluted in water at an application rate of 200 ppm. The leaf disks are inoculated with a spore suspension of the fungus 2 days after application. The inoculated leaf disks are incubated at 23° C./21° C.

[10] = tested on: Pythium ultimum; assay: Pythium ultimum / liquid culture (seedling damping off); type: cell-based; conditions: Globisporangium ultimum, PDB potato dextrose broth, 24° C., 2-3 days after application, read-out: control of Pythium ultimum (inhibition of growth, photometrically)
Protocol: Pythium Ultimum/Liquid Culture (Seedling Damping Off): Mycelia fragments and oospores of a newly grown liquid culture of the fungus were directly mixed into nutrient broth (PDB potato dextrose broth). After placing a DMSO solution of test compound into a 96 well microtiter plate at an application rate 200 ppm, the nutrient broth containing the fungal mycelia/spore mixture was added. The test plates were incubated at 24° C. and the inhibition of growth was determined photometrically 2-3 days after application.

[11] = tested on: Botryotinia fuckeliana (Botrytis cinerea); assay: Botryotinia fuckeliana (Botrytis cinerea) / liquid culture (gray mould); type: cell-based; conditions: Vogels broth, 24° C., 3-4 days after application, read-out: control of Botryotinia fuckeliana (inhibition of growth, photometrically)
Protocol: Botryotinia Fuckeliana (Botrytis cinerea)/Liquid Culture (Gray Mould): Conidia of the fungus from cryogenic storage were directly mixed into nutrient broth (Vogels broth). After placing a DMSO solution of test compound into a 96-well microtiter plate at an application rate 200 ppm, the nutrient broth containing the fungal spores was added. The test plates were incubated at 24° C. and the inhibition of growth was determined photometrically 3-4 days after application.

[12] = tested on: Thanatephorus cucumeris (Rhizoctonia solani); assay: Thanatephorus cucumeris (Rhizoctonia solani) / liquid culture (foot rot, damping-off); type: cell-based; conditions: PDB potato dextrose broth, 24° C., 3-4 days after application, read-out: control of Thanatephorus cucumeris (inhibition of growth, photometrically)
Protocol: Thanatephorus Cucumeris (Rhizoctonia solani)/Liquid Culture (Foot Rot, Damping-Off): Mycelia fragments of a newly grown liquid culture of the fungus are directly mixed into nutrient broth (PDB potato dextrose broth). After placing a DMSO solution of the test compounds into a 96-well microtiter plate at an application rate 200 ppm, the nutrient broth containing the fungal material was added. The test plates were incubated at 24° C. and the inhibition of growth was determined photometrically 3-4 days after application.

[13] = tested on: Sclerotinia sclerotiorum; assay: Sclerotinia sclerotiorum / liquid culture (cottony rot); type: cell-based; conditions: PDB potato dextrose broth, 24° C., 3-4 days after application, read-out: control of Sclerotinia sclerotiorum (inhibition of growth, photometrically)
Protocol: Sclerotinia Sclerotiorum/Liquid Culture (Cottony Rot) Mycelia fragments of a newly grown liquid culture of the fungus are directly mixed into nutrient broth (PDB potato dextrose broth). After placing a (DMSO) solution of test compound into a microtiter plate at an application rate 200 ppm (96-well format) the nutrient broth containing the fungal material is added. The test plates are incubated at 24° C. and the inhibition of growth is determined photometrically 3-4 days after application.

Row | SMILES | melting point [°C] | pest or weed control at 200 ppm [1] [%] | pest or weed control at 200 ppm [2] [%] | pest or weed control at 200 ppm [3] [%] | pest or weed control at 200 ppm [4] [%] | pest or weed control at 200 ppm [5] [%] | pest or weed control at 200 ppm [6] [%] | pest or weed control at 200 ppm [7] [%] | pest or weed control at 200 ppm [8] [%] | pest or weed control at 200 ppm [9] [%] | inhibition at 200 ppm [10] [%] | inhibition at 200 ppm [11] [%] | inhibition at 200 ppm [12] [%] | inhibition at 200 ppm [13] [%]
1 | c1ccc(-c2c3c(nc4ccccc24)/C(=N/OCCCO/N=C2\CCCc4c2nc2ccccc2c4-c2ccccc2)CCC3)cc1 [P.26] | 205 to 210 |  |  |  |  |  |  |  |  |  |  |  |  | 
2 | Cc1ccc2c(n1)/C(=N/OCC(C)(C)CO/N=C1\CCCc3cc4c(nc31)CCCC4)CCC2 [P.40] |  | ≥ 80 | ≥ 80 | ≥ 80 | ≥ 80 | ≥ 80 | ≥ 80 | ≥ 80 | ≥ 80 | ≥ 80 | ≥ 80 | ≥ 80 | ≥ 80 | ≥ 80
3 | c1c2c(nc3c1CCC/C3=N\OCC1(CO/N=C3\CCCc4cc5c(nc43)CCCC5)CC1)CCCC2 [P.49] |  | ≥ 80 |  | ≥ 80 | ≥ 80 |  | ≥ 80 | ≥ 80 |  |  |  | ≥ 80 | ≥ 80 | ≥ 80
4 | Cc1ccc2c(n1)/C(=N/OCC(C)(C)CO/N=C1\CCCc3c1nc1ccccc1c3C)CCC2 [P.38] |  | ≥ 80 | ≥ 80 | ≥ 80 | ≥ 80 | ≥ 80 | ≥ 80 | ≥ 80 | ≥ 80 | ≥ 80 | ≥ 80 | ≥ 80 | ≥ 80 | ≥ 80
5 | Clc1ccc2c(n1)/C(=N/OCC1(CO/N=C3\CCc4ccc(Cl)nc43)CC1)CC2 [P.21] | 170 to 173 |  |  |  |  |  |  |  |  |  |  |  |  | 
6 | c1c2c(nc3c1CCC/C3=N\OCCCO/N=C1\CCCc3cc4c(nc31)CCCC4)CCCC2 [P.51] |  | ≥ 80 |  | ≥ 80 | ≥ 80 |  | ≥ 80 | ≥ 80 | ≥ 80 |  | ≥ 80 | ≥ 80 | ≥ 80 | ≥ 80
7 | Cc1ccc2c(n1)/C(=N/OCCCO/N=C1\CCCc3c1nc1ccccc1c3C)CCC2 [P.37] |  |  | ≥ 80 | ≥ 80 | ≥ 80 | ≥ 80 | ≥ 80 | ≥ 80 | ≥ 80 | ≥ 80 | ≥ 80 | ≥ 80 | ≥ 80 | ≥ 80
8 | Cc1ccc2c(n1)/C(=N/OCC(C)(C)CO/N=C1\CCCc3c(CF)cc(C)nc31)CCC2 [P.44] |  |  |  | ≥ 80 | ≥ 80 | ≥ 80 | ≥ 80 | ≥ 80 | ≥ 80 |  | ≥ 80 | ≥ 80 |  | ≥ 80
9 | Cc1ccc2c(n1)/C(=N/OCCCO/N=C1\CCCc3cc4c(nc31)CCCC4)CCC2 [P.39] |  | ≥ 80 | ≥ 80 | ≥ 80 | ≥ 80 | ≥ 80 | ≥ 80 | ≥ 80 | ≥ 80 | ≥ 80 | ≥ 80 | ≥ 80 | ≥ 80 | ≥ 80
